Experimental findings from publication PMC9822051, “A Study on the Chemistry and Biological Activity of 26-Sulfur Analogs of Diosgenin: Synthesis of 26-Thiodiosgenin S-Mono- and Dioxides, and Their Alkyl Derivatives” (Molecules, 2022) are described below.

Data set [1] concerns normal human retina cells RPE-1. Description: Cytotoxicity, resazurin, 72 h. In kind it is cell-based. The following applies: RPE-1 normal cells. On the procedure: (§1) The studied compounds were evaluated for cytotoxicity in human cancer cell lines (cervical carcinoma HeLa, chronic myelogenous leukemia K562 and breast adenocarcinoma MCF7) and normal human retina cells RPE-1 (ca. 5.0 × 10^4 cells·mL^−1) after 72 h of treatment using resazurin (Merck/MilliporeSigma, St. Louis, MO, USA) as described earlier for Calcein AM dye.

For data set [2], the system named is breast adenocarcinoma MCF7. Kind of data set: Cytotoxicity, resazurin, 72 h. In kind it is cell-based, human. To be noted: MCF7, 72 h. Here is the method:
as §1
(Resazurin is reduced to fluorescent resorufin, in cell work by metabolically active cells.)

Data set [3] has as its system chronic myelogenous leukemia K562. Description: Cytotoxicity, resazurin, 72 h. In kind it is cell-based, human. To be noted: K562, 72 h. Here is the method:
as §1

The test system of the next data set is cervical carcinoma HeLa. Description: Cytotoxicity, resazurin, 72 h. Format: cell-based, human. On the procedure: as §1

For orientation: melting point means the temperature of the solid-liquid transition. For orientation: IC50 means the midpoint of a concentration-inhibition curve. A higher IC50 goes with weaker potency in that assay. The compound `CC1CCC2(OC3CC4C5CC=C6CC(O)CCC6(C)C5CCC4(C)C3C2C)[S+]([O-])C1` (centres unmarked) [Sulfoxide 7] came in with a melting point of 165 to 166 °C. Besides, the 50% inhibitory concentration (IC50) in data set [1] was > 50 µM. The IC50 in data set [2] was > 50 µM. Besides, in data set [3], the IC50 was > 50 µM. The compound further gave an IC50 in the data set with cervical carcinoma HeLa of 34.3 ± 3 µM.
